A short description of the data set: in vitro. The settings on record: human, hela cells, % viability.
Regarding `CC1=C[C@@H](CO)[C@H](C(C)C)C[C@H]1CC(=O)N1CCN(CCO)CC1` [CBK289217], the viability at 28.5 h, 10 µM came out at 85.7%.

For the compound `CC1=C[C@@H](CO)[C@H](C(C)C)C[C@H]1CC(=O)NCc1cccnc1` [CBK289218], the viability at 28.5 h, 10 µM amounted to 81.7%.

Take `CC1=C[C@@H](CN2CCC(O)CC2)[C@H](C(C)C)C[C@H]1Cc1nnc(-c2ccccc2)o1` [CBK289220]: the viability at 28.5 h, 10 µM stood at 97.2%.

As to `CC(=O)N1CCN(C[C@@H]2C=C(C)[C@H](Cc3nnc(C(C)(C)C)o3)C[C@H]2C(C)C)CC1` [CBK289221], the viability at 28.5 h, 10 µM came to 86%.

Consider `CC(=O)NC[C@@H]1C=C(C)[C@H](Cc2nnc(-c3cncn3C)o2)C[C@H]1C(C)C` [CBK289225], for which the viability at 28.5 h, 10 µM is 107%.

As for `CC1=C[C@@H](CNS(C)(=O)=O)[C@H](C(C)C)C[C@H]1Cc1nnc(-c2ccccc2F)o1` [CBK289226], the viability at 28.5 h, 10 µM amounted to 116%.

As for `COc1ccc(NC(=O)N[C@H]2C[C@H]3C(=O)N[C@H](Cc4ccccc4)C(=O)N3C2)cc1` [CBK289227], the viability at 28.5 h, 10 µM amounted to 84.7%.

With `CC1(C)[C@H](Cc2cc(CO)on2)C[C@@H]1NS(=O)(=O)c1ccccc1` [CBK289234], the viability at 28.5 h, 10 µM was found to be 86%.

On to `CC1(C)[C@H](Cc2cc(CO)on2)C[C@@H]1NC(=O)C1CCCCC1` [CBK289235], for which the viability at 28.5 h, 10 µM was found to be 93.1%.

On to `O=C1CO[C@H]2CN(S(=O)(=O)c3ccccc3)C[C@H]2N1c1ccccc1` [CBK289236], for which the viability at 28.5 h, 10 µM worked out at 93.7%.

For the compound `c1ccc(-c2cc(CC3(NCc4cccnc4)COC3)no2)nc1` [CBK289238], the viability at 28.5 h, 10 µM was 83.5%.

Consider `c1ccc(-c2cc(CC3(NCc4cc5ccccc5o4)COC3)no2)nc1` [CBK289239], for which the viability at 28.5 h, 10 µM is 93.4%.

For the compound `CC(=O)N[C@H]1C[C@@H](Cc2cc(CCO)on2)C1(C)C` [CBK289243], the viability at 28.5 h, 10 µM is 99.7%.

Consider `COCC(=O)N[C@H]1C[C@@H](Cc2cc(C(C)(C)C)on2)C1(C)C` [CBK289244], for which the viability at 28.5 h, 10 µM stood at 106%.

Regarding `CC(=O)N1C[C@@H]2OCC(=O)N(Cc3ccccn3)[C@@H]2C1` [CBK289245], the viability at 28.5 h, 10 µM was 95.8%.

For the compound `CC(C)C(=O)N[C@H]1C[C@@H](Cc2cc(CN3CCOCC3)on2)C1(C)C` [CBK289248], the viability at 28.5 h, 10 µM was 99.8%.

In the case of `CN1CCC(NC2(Cc3cc(-c4ccccn4)on3)COC2)CC1` [CBK289249], the viability at 28.5 h, 10 µM amounted to 88.7%.

Turning to `CN1CCC(N[C@H]2C[C@@H](Cc3cc(CCO)on3)C2(C)C)CC1` [CBK289253], the viability at 28.5 h, 10 µM is 93.6%.

Consider `CC(C)(O)c1cc(CC2(NCc3ccc(Cl)cc3)COC2)no1` [CBK289254], for which the viability at 28.5 h, 10 µM was 80.1%.

With `CC(C)(O)c1cc(CC2(NCc3ccco3)COC2)no1` [CBK289255], the viability at 28.5 h, 10 µM is 92.6%.

Turning to `CC1(C)[C@H](Cc2cc(CC3CCCCC3)on2)C[C@@H]1NC(=O)C1CCCC1` [CBK289256], the viability at 28.5 h, 10 µM stood at 84.7%.

With `CCCCc1cc(C[C@@H]2C[C@H](NC(=O)N3CCOCC3)C2(C)C)no1` [CBK289257], the viability at 28.5 h, 10 µM came out at 87.9%.

Regarding `CC1(C)[C@H](Cc2cc(CC3CCCCC3)on2)C[C@@H]1NC(=O)N1CCOCC1` [CBK289258], the viability at 28.5 h, 10 µM is 98.6%.

Consider `O=C1CO[C@H]2CN(Cc3ncc[nH]3)C[C@H]2N1Cc1ccncc1` [CBK289259], for which the viability at 28.5 h, 10 µM is 108%.

Turning to `N#Cc1ccc(CN2C[C@@H]3OCC(=O)N[C@@H]3C2)cc1` [CBK289261], the viability at 28.5 h, 10 µM was determined as 103%.

As to `COc1ccc(CN2C(=O)CO[C@H]3CN(C(=O)COc4ccccc4)C[C@H]32)cc1` [CBK289262], the viability at 28.5 h, 10 µM is 108%.

As for `COc1ccc(C(=O)N[C@H]2C[C@@H]3C(=O)N[C@H]4CCN(C(=O)C5CCC5)[C@@H]4C(=O)N3C2)cc1` [CBK289266], the viability at 28.5 h, 10 µM was 89.3%.

As for `COc1ccccc1CC(=O)N1CC[C@@H]2NC(=O)[C@H]3C[C@H](NC(=O)C4CC4)CN3C(=O)[C@H]21` [CBK289267], the viability at 28.5 h, 10 µM is 103%.

`O=C(N[C@H]1C[C@@H]2C(=O)N[C@H]3CCN(C(=O)Cc4cccs4)[C@@H]3C(=O)N2C1)C1CCC1` [CBK289269]: the viability at 28.5 h, 10 µM turned out to be 117%.

With `O=C(O)CCC(=O)N[C@H]1CCN2C(=O)c3cc(-c4ccc(Cl)cc4)ccc3NC(=O)[C@H]12` [CBK289275], the viability at 28.5 h, 10 µM amounted to 115%.

On to `Cc1ccc(S(=O)(=O)N2C[C@H](O)C[C@H]2C(=O)O)cc1` [CBK289276], for which the viability at 28.5 h, 10 µM was determined as 103%.

Take `CCCN1C(=O)[C@@H]2[C@@H](CCN2C(=O)C(=O)O)N(Cc2cccs2)C1=O` [CBK289277]: the viability at 28.5 h, 10 µM came out at 93.1%.

With `COc1ccc(CC(=O)N2CC[C@H]3NC(=O)N(c4ccccc4)C(=O)[C@H]32)cc1` [CBK289278], the viability at 28.5 h, 10 µM was 92.7%.

On to `COc1cccc(N2C(=O)N[C@@H]3CCN(S(=O)(=O)c4ccccc4)[C@@H]3C2=O)c1` [CBK289283], for which the viability at 28.5 h, 10 µM came to 111%.

Take `Cc1ccc(N2C(=O)N[C@@H]3CCN(C(=O)c4ccc(C(C)(C)C)cc4)[C@@H]3C2=O)cc1` [CBK289284]: the viability at 28.5 h, 10 µM was determined as 98.8%.

For the compound `Cc1ccc(N2C(=O)N[C@@H]3CCN(S(=O)(=O)c4ccccc4)[C@@H]3C2=O)cc1` [CBK289285], the viability at 28.5 h, 10 µM is 107%.

`COC(=O)C(=O)N1CC[C@H]2NC(=O)N(c3ccc(C(C)C)cc3)C(=O)[C@H]21` [CBK289287]: the viability at 28.5 h, 10 µM turned out to be 105%.

As to `CC(C)c1ccc(N2C(=O)N[C@@H]3CCN(S(=O)(=O)c4ccccc4)[C@@H]3C2=O)cc1` [CBK289289], the viability at 28.5 h, 10 µM was 114%.

Take `COC(=O)C(=O)N1CC[C@H]2NC(=O)N(Cc3ccccc3)C(=O)[C@H]21` [CBK289292]: the viability at 28.5 h, 10 µM worked out at 98.6%.

Take `CS(=O)(=O)c1ccc(CN2CCOC[C@H]2c2nc(-c3ccc(F)cc3)c[nH]2)cc1` [CBK289295]: the viability at 28.5 h, 10 µM was found to be 89.4%.

Consider `COc1ccc(-c2c[nH]c([C@@H]3COCCN3Cc3csnn3)n2)cc1` [CBK289297], for which the viability at 28.5 h, 10 µM came to 97.5%.

In the case of `COc1ccc(-c2c[nH]c([C@@H]3COCCN3Cc3cccc(C#N)c3)n2)cc1` [CBK289298], the viability at 28.5 h, 10 µM was 96%.

For `CS(=O)(=O)c1ccc(-c2c[nH]c([C@@H]3COCCN3Cc3ccccc3)n2)cc1` [CBK289300], the viability at 28.5 h, 10 µM amounted to 83.1%.

For `Cc1ccc(-c2c[nH]c([C@@H]3COCCN3Cc3csnn3)n2)cc1` [CBK289302], the viability at 28.5 h, 10 µM stood at 91.4%.

Consider `FC(F)(F)Oc1ccc(-c2c[nH]c([C@@H]3COCCN3Cc3c[nH]cn3)n2)cc1` [CBK289303], for which the viability at 28.5 h, 10 µM turned out to be 111%.

As to `O=C(O)c1ccc(CN2CCOC[C@H]2c2nc(-c3ccc(F)cc3)c[nH]2)cc1` [CBK289304], the viability at 28.5 h, 10 µM was 91.2%.

For the compound `Clc1ccc(-c2c[nH]c([C@@H]3COCCN3Cc3csnn3)n2)cc1` [CBK289309], the viability at 28.5 h, 10 µM stood at 87.1%.

As for `CCNC(=O)N[C@H]1C[C@@H](Cc2cc(CN(C)C)on2)C1(C)C` [CBK289310], the viability at 28.5 h, 10 µM is 105%.

Regarding `CN(C)Cc1cc(C[C@@H]2C[C@H](NC(=O)c3ccnc(Cl)c3)C2(C)C)no1` [CBK289311], the viability at 28.5 h, 10 µM is 89.6%.

As for `FC(F)(F)Oc1ccc(-c2c[nH]c([C@@H]3COCCN3C3CCNCC3)n2)cc1` [CBK289312], the viability at 28.5 h, 10 µM was 97.8%.

For `OCc1cc(CC2(NCc3cccc4c3OCO4)COC2)no1` [CBK289314], the viability at 28.5 h, 10 µM worked out at 90.6%.

Take `Clc1ccc(-c2c[nH]c([C@@H]3COCCN3Cc3c[nH]cn3)n2)cc1` [CBK289316]: the viability at 28.5 h, 10 µM came to 105%.

On to `FC(F)(F)c1ccc(-c2c[nH]c([C@@H]3COCCN3Cc3csnn3)n2)cc1` [CBK289318], for which the viability at 28.5 h, 10 µM came out at 92.2%.

Regarding `c1cncc(CN2CCOC[C@H]2c2nc(-c3cccnc3)c[nH]2)c1` [CBK289323], the viability at 28.5 h, 10 µM is 86.3%.

For the compound `O=C1N[C@@H]2CCN(C(=O)C3CC3)[C@@H]2C(=O)N1c1ccc(F)cc1` [CBK289324], the viability at 28.5 h, 10 µM came out at 99.6%.

Take `CC(C)(C)C(=O)N1CC[C@H]2NC(=O)N(c3ccc(F)cc3)C(=O)[C@H]21` [CBK289328]: the viability at 28.5 h, 10 µM was found to be 86.4%.

For the compound `O=C(O)CCC(=O)N1CC[C@H]2NC(=O)N(c3ccc(F)cc3)C(=O)[C@H]21` [CBK289329], the viability at 28.5 h, 10 µM is 103%.

On to `O=C(N[C@H]1CCN2C(=O)c3cc(-c4ccc5c(c4)OCO5)ccc3NC(=O)[C@H]12)C1CCCC1` [CBK289333], for which the viability at 28.5 h, 10 µM was 103%.

On to `O=C(N[C@H]1CCN2C(=O)c3cc(Br)ccc3NC(=O)[C@H]12)c1cccc(F)c1` [CBK289334], for which the viability at 28.5 h, 10 µM worked out at 82.3%.

For `O=C(N[C@H]1CCN2C(=O)c3cc(-c4cccs4)ccc3NC(=O)[C@H]12)c1cccs1` [CBK289336], the viability at 28.5 h, 10 µM was 91.8%.

As for `O=C(N[C@H]1CCN2C(=O)c3cc(-c4cccs4)ccc3NC(=O)[C@H]12)c1cnccn1` [CBK289337], the viability at 28.5 h, 10 µM turned out to be 116%.

Turning to `O=C(N[C@H]1CCN2C(=O)c3cc(-c4ccsc4)ccc3NC(=O)[C@H]12)c1cccc(F)c1` [CBK289339], the viability at 28.5 h, 10 µM is 92.6%.

Turning to `O=C1Nc2cc(Cl)ccc2C(=O)N2CC[C@H](NC(=O)N3CCOCC3)[C@@H]12` [CBK289340], the viability at 28.5 h, 10 µM turned out to be 87.7%.

For `O=C1Nc2cc(Cl)ccc2C(=O)N2CC[C@H](NS(=O)(=O)c3cccs3)[C@@H]12` [CBK289341], the viability at 28.5 h, 10 µM is 108%.

Take `O=C(O)COCC(=O)N[C@H]1CCN2C(=O)c3ccc(Cl)cc3NC(=O)[C@H]12` [CBK289342]: the viability at 28.5 h, 10 µM turned out to be 90%.

As to `O=C1Nc2ccc(/C=C/c3ccccc3)cc2C(=O)N2CC[C@H](NC(=O)N3CCOCC3)[C@@H]12` [CBK289344], the viability at 28.5 h, 10 µM is 98.1%.

As for `CC(C)NC(=O)N[C@H]1CCN2C(=O)c3cc(-c4ccc(F)cc4F)ccc3NC(=O)[C@H]12` [CBK289346], the viability at 28.5 h, 10 µM was found to be 86.8%.

For `Cc1cccc(-c2ccc3c(c2)C(=O)N2CC[C@H](NC(=O)c4cnccn4)[C@H]2C(=O)N3)c1C` [CBK289348], the viability at 28.5 h, 10 µM stood at 87.2%.

Regarding `O=C(N[C@H]1CCN2C(=O)c3cc(-c4ccccc4)ccc3NC(=O)[C@H]12)C1CCCC1` [CBK289349], the viability at 28.5 h, 10 µM worked out at 91.6%.

As to `O=C(N[C@H]1CCN2C(=O)c3cc(-c4ccccc4)ccc3NC(=O)[C@H]12)c1cccs1` [CBK289350], the viability at 28.5 h, 10 µM came out at 85.9%.

These data come from publication PMC12040169 (PLOS Biology, 2025).
